Assay results taken from patent US20130302311A1, “EMERGENCY INTERVENTIONS OF ACTIVE CHARCOAL WITH DABIGATRAN ETEXILATE OVERDOSING” (BOEHRINGER INGELHEIM INTERNATIONAL GMBH, priority 2009, published 2013).

Experiments:
[1] = Binding of dabigatran etexilate to activated charcoal in water (simulated stomach fluid), HPLC; type: physicochemical; conditions: for dabigatran etexilate level recovered by HPLC: untreated suspension (no charcoal), filtered
Method: In these experiments, binding of dabigatran etexilate to active charcoal in water simulates recent ingestion (2-5, preferably 2-3 hrs) of large amounts of dabigatran etexilate in the stomach fluid. Binding of dabigatran to active charcoal in plasma simulates situations where dabigatran was absorbed after ingestion and present in high concentrations in plasma. The contents of 5, 10 and 20 capsules (150 mg/capsule) of dabigatran etexilate were suspended in 100 ml water (approx. stomach volume, pH 2.7, 2.5 and 2.4, respectively). Each suspension was divided in half. To one portion a freshly prepared activated charcoal suspension (125 mg/ml, Ultracarbon®, Merck) was added. Both suspensions (with and without charcoal) were filtered and dabigatran etexilate concentrations were assessed via HPLC.

[2] = Binding of dabigatran to active charcoal in plasma, LC-MS/MS; type: physicochemical; conditions: for dabigatran plasma level (mean±SD): untreated plasma (no charcoal)
Method: In these experiments, binding of dabigatran etexilate to active charcoal in water simulates recent ingestion (2-5, preferably 2-3 hrs) of large amounts of dabigatran etexilate in the stomach fluid. Binding of dabigatran to active charcoal in plasma simulates situations where dabigatran was absorbed after ingestion and present in high concentrations in plasma. In the plasma experiments, dabigatran was added to a plasma pool at supra-therapeutic concentrations of 470 and 940 ng/ml. The sample was then split, and active charcoal was added to half at the manufacturer's specified concentration (125 mg/ml), or 1:11 dilution of this. Dabigatran plasma levels were measured by a validated LC-MS/MS method.

CCCCCCOC(=O)NC(=N)c1ccc(NCc2nc3cc(C(=O)N(CCC(=O)OCC)c4ccccn4)ccc3n2C)cc1 [dabigatran etexilate]
dabigatran etexilate peak (HPLC) in charcoal-treated suspensions ([1]; activated charcoal suspension (125 mg/ml, Ultracarbon) added, all three tested concentrations): no longer detectable
dabigatran etexilate adsorbed by the activated charcoal ([1]; activated charcoal suspension (125 mg/ml, Ultracarbon), all three tested concentrations): > 99.9%
dabigatran etexilate level recovered by HPLC ([1]; contents of 5 capsules (150 mg/capsule) in 100 ml water, pH 2.7): 8.3 mg/mL
dabigatran etexilate level recovered by HPLC ([1]; contents of 10 capsules (150 mg/capsule) in 100 ml water, pH 2.5): 15.6 mg/mL
dabigatran etexilate level recovered by HPLC ([1]; contents of 20 capsules (150 mg/capsule) in 100 ml water, pH 2.4): 29.6 mg/mL

Cn1c(CNc2ccc(C(=N)N)cc2)nc2cc(C(=O)N(CCC(=O)O)c3ccccn3)ccc21 [dabigatran]
dabigatran plasma level after addition of activated charcoal ([2]; activated charcoal at 125 mg/ml or 1:11 dilution, dabigatran added at 470 and 940 ng/ml, close to or below lower limit of quantification): < 1.01 ng/mL
dabigatran plasma level (mean±SD) ([2]; dabigatran added at 470 ng/ml): 394 ± 19.4 ng/mL
dabigatran plasma level (mean±SD) ([2]; dabigatran added at 940 ng/ml): 824 ± 39.3 ng/mL
